# Data: publication PMC8537988, “Re-Use of Caco-2 Monolayers in Permeability Assays—Validation Regarding Cell Monolayer Integrity” (Pharmaceutics, 2021)
# Tested on: Caco-2 monolayers
# Assay: Apical to basolateral permeability of LY through Caco-2 monolayers (Transwell, 12-well)
# Format: in vitro ADME, human
# Settings: for LY Papp, µ best fit of Normal distribution to Papp / LY Papp, µ directly from Papp: single sampling at 60 min
# Procedure: Caco-2 cells culture and monolayers preparation was as described in the reference protocol. Cells were maintained in T75 cm^2 flasks in culture medium (DMEM supplemented with 1% (v/v) NEAA, 10% (v/v) heat-inactivated FBS), in a humidified atmosphere of 5% CO2 at 37 °C. As recommended in the reference protocol, the permeability assays were performed using cells in passages 95–105. The cells were thawed on passage 89 and sub-cultured twice a week at or shortly before 90% confluency by a 1:8 split. To avoid seeding aggregated cells and the formation of multilayers in Transwell™ inserts, the cell clusters were disaggregated into single cells by passing them 3 times through a syringe needle of 23 gauges (BD Falcon) before cell counting. Caco-2 cells were seeded at 2.6 × 10^5 cells/cm^2 on 12-well polycarbonate filter inserts. The culture medium (with 1% (v/v) Pen/Strep) was replaced by fresh medium 6 h following seeding and then every 2–3 days thereafter until transport experiments.
# The reference protocol was followed in the permeability assays, with slight modifications as required by the new experimental approach. Manipulation of the cell monolayers was conducted under sterile conditions (in the laminar flow hood or incubator). At the day of the experiments, the culture medium was removed and HBSS (further supplemented with 25 mM HEPES, 0.35 g/L sodium bicarbonate, pH 7.4) pre-warmed to 37 °C was added to the donor (0.5 mL) and receiver (1.5 mL) sides to wash the cell monolayers. The plate containing the inserts was placed (lid-covered) in an incubator without CO2 at 37 °C with an orbital shaker (IKA-Schüttler MTS4, JMGS, Lisboa, Portugal) at 50 rpm for 8 min. The washing step was repeated with new HBSS. The TEER was measured in HBSS at 37 °C using a Millicell® ERS-2 voltmeter equipped with a chopstick electrode pair (Merck, Lisboa, Portugal). A filter insert without cells was included in each set of experiments for correction of the TEER value for the background resistance. The resistance values (Ω cm^2) of the cell monolayers were obtained by subtracting the TEER value from blank inserts and multiplying by the surface area of the insert. All cell monolayers presented TEER values above 200 Ω cm^2. At least one insert of the set was fixed and stained for confocal microscopy analysis (see next section). The remaining ones were used to perform the apical to basolateral permeability assays with the paracellular marker LY. For this, the donor HBSS washing solution was decanted, and the inserts were placed into empty wells of a fresh 12-well plate. The permeability assay was initiated with the addition of 450 µL of the LY solution (20 µM in HBSS at 37 °C) simultaneously to the donor compartments of 3 to 4 insert, from which a 50 µL aliquot was immediately collected and stored for the calculation of the solute concentration in the donor compartment at t = 0. The inserts containing the LY solution were subsequently positioned in a pre-prepared 12-well plate containing HBSS (1.2 mL per well), and the lid-covered plate was placed on the incubator (without CO2, 50 rpm and 37 °C). At the defined sampling times, the plate was positioned into the laminar flow hood and the inserts were transferred into new wells containing fresh HBSS. The high fluorescence quantum yield of LY allows its detection by […], even for the very small amount expected to permeate during short permeation intervals. In this work we used 10, 20, 30, and 60 min or 60 min only as sampling times. At the end of the assay, inserts were transferred to empty wells and 50 µL was taken from the donor compartment for the calculation of the solute mass balance. The remaining solution was decanted, the inserts were placed on new wells containing 1.5 mL of pre-warm HBSS, and 0.5 mL of pre-warmed HBSS was added to each insert for TEER measurements. Some selected monolayers were prepared for microscopy; the remaining were incubated with culture media for re-use, as described below. […]
# [1] = day 22, both sampling intervals (10 or 60 min)
substance,measurement,setting,value
Lucifer yellow CH di-potassium salt [LY],"LY Papp, µ best fit of Normal distribution to Papp","all days, all (88)",1.9 10^-7 cm/s
same,"LY Papp, µ directly from Papp","all days, all (88)",2.1 10^-7 cm/s
same,"LY Papp, µ best fit of Normal distribution to Papp","all days, re-use (41)",1.6 10^-7 cm/s
same,"LY Papp, µ directly from Papp","all days, re-use (41)",1.8 10^-7 cm/s
same,"LY QA, µ from Log(QA)","all days, single use & re-use, 1st 10 min (65)",0.18%
same,"LY QA, µ from Log(QA)","all days, single use & re-use, 1st 60 min (88)",0.20%
same,"LY QA, µ from Log(QA)","all days, single use & re-use, 2nd 10 min (66)",0.21%
same,"LY QA, µ from Log(QA)","all days, single use & re-use, 3rd 10 min (62)",0.25%
same,"LY QA, µ from Log(QA)","all days, single use & re-use, 4th 30 min (62)",0.35%
same,"LY QA, µ from Log(QA)","all days, single use & re-use, all 1st samplings (153)",0.19%
same,"LY QA, µ from Log(QA)","all days, single use & re-use, all samplings (346)",0.23%
same,"LY Papp, µ best fit of Normal distribution to Papp","all days, single use (47)",2.1 10^-7 cm/s
same,"LY Papp, µ directly from Papp","all days, single use (47)",2.4 10^-7 cm/s
same,"LY Papp, µ best fit of Normal distribution to Papp","day 22, all (35)",2.0 10^-7 cm/s
same,"LY Papp, µ directly from Papp","day 22, all (35)",2.3 10^-7 cm/s
same,"QA (%), µ, LY transported during first sampling interval","day 22, batch 1, passage 95, single use, one-time sampling (60 min)",0.18%
same,"QA (%), µ, LY transported during first sampling interval","day 22, batch 1, passage 98, single use, multi-time sampling (10 min)",0.19%
same,"QA (%), µ, LY transported during first sampling interval","day 22, batch 1, passage 100, single use, multi-time sampling (10 min)",0.36%
same,"QA (%), µ, LY transported during first sampling interval","day 22, batch 1, passage 104, single use, multi-time sampling (10 min)",0.16%
same,"QA (%), µ, LY transported during first sampling interval","day 22, batch 1, passage 105, single use, multi-time sampling (10 min)",0.22%
same,"QA (%), µ, LY transported during first sampling interval","day 22, batch 2, passage 95, single use, one-time sampling (60 min)",0.27%
same,"QA (%), µ, LY transported during first sampling interval","day 22, batch 2, passage 98, single use, one-time sampling (60 min)",0.30%
same,"QA (%), µ, LY transported during first sampling interval","day 22, batch 3, passage 95, single use, one-time sampling (60 min)",0.19%
same,"LogQA, centre of Normal distribution",[1],around −0.6
same,"QA, amount of LY that reaches the acceptor compartment",[1],around 0.2%
same,"LY QA, µ from Log(QA)","day 22, single use, 1st 10 min (27)",0.25%
same,"LY QA, µ from Log(QA)","day 22, single use, 1st 60 min (35)",0.21%
same,"LY QA, µ from Log(QA)","day 22, single use, 2nd 10 min (28)",0.29%
same,"LY QA, µ from Log(QA)","day 22, single use, 3rd 10 min (26)",0.37%
same,"LY QA, µ from Log(QA)","day 22, single use, 4th 30 min (28)",0.48%
same,"LY QA, µ from Log(QA)","day 22, single use, all 1st samplings (62)",0.23%
same,"LY QA, µ from Log(QA)","day 22, single use, all samplings (144)",0.30%
same,"LY Papp, µ best fit of Normal distribution to Papp","day 25, all (29)",1.7 10^-7 cm/s
same,"LY Papp, µ directly from Papp","day 25, all (29)",1.9 10^-7 cm/s
same,"QA (%), µ, LY transported during first sampling interval","day 25, batch 1, passage 95, re-use, one-time sampling (60 min)",0.21%
same,"QA (%), µ, LY transported during first sampling interval","day 25, batch 1, passage 95, single use, one-time sampling (60 min)",0.13%
same,"QA (%), µ, LY transported during first sampling interval","day 25, batch 1, passage 98, single use, multi-time sampling (10 min)",0.10%
same,"QA (%), µ, LY transported during first sampling interval","day 25, batch 1, passage 100, re-use, multi-time sampling (10 min)",0.25%
same,"QA (%), µ, LY transported during first sampling interval","day 25, batch 1, passage 104, single use, multi-time sampling (10 min)",0.14%
same,"QA (%), µ, LY transported during first sampling interval","day 25, batch 1, passage 105, re-use, multi-time sampling (10 min)",0.20%
same,"QA (%), µ, LY transported during first sampling interval","day 25, batch 2, passage 95, re-use, one-time sampling (60 min)",0.16%
same,"QA (%), µ, LY transported during first sampling interval","day 25, batch 2, passage 98, single use, one-time sampling (60 min)",0.25%
same,"QA (%), µ, LY transported during first sampling interval","day 25, batch 3, passage 95, re-use, one-time sampling (60 min)",0.19%
same,"LY Papp, µ best fit of Normal distribution to Papp","day 25, re-use (23)",1.7 10^-7 cm/s
same,"LY Papp, µ directly from Papp","day 25, re-use (23)",1.9 10^-7 cm/s
same,"LY QA, µ from Log(QA)","day 25, re-use, 1st 10 min (16)",0.22%
same,"LY QA, µ from Log(QA)","day 25, re-use, 1st 60 min (23)",0.18%
same,"LY QA, µ from Log(QA)","day 25, re-use, 2nd 10 min (16)",0.28%
same,"LY QA, µ from Log(QA)","day 25, re-use, 3rd 10 min (16)",0.27%
